Measurements: patent US10675256B2, “Methods for inhibiting conversion of choline to trimethylamine (TMA)” (The Procter & Gamble Company, priority 2017, dated 2020)
Where two headings read alike, the source gives them in different places.

Assays:
[1] = system: human fecal polymicrobial community; assay: Human fecal polymicrobial incubation with d9-choline, TMA inhibition (EXAMPLE 3); assay type: cell-based; details: human fecal slurry 0.2% (w/v), 50 μM d9-choline chloride, 20 hours at 37° C., anaerobic; read-out: TMA Inhibition (IC50, mol/L)
Description: Human fecal polymicrobial incubation with deuterium labeled choline compound screening method, including cell viability assay. All materials were pre-reduced in an anaerobic chamber for 24 hours before using in the experiments and experimental procedures were performed under anaerobic conditions (chamber purged with 85% nitrogen, 5% hydrogen, 10% carbon dioxide).
Human fecal samples were collected from a healthy volunteer with no chronic illnesses, blood borne diseases or active infections. The volunteer had not received antibiotics within two months prior to donation and provided written informed consent. Samples were diluted to make a 20% (w/v) fecal slurry by resuspension of the feces in a media containing 3% (w/v) tryptic soy broth, 1% (w/v) trehalose, pH 7.3. The fecal slurry was homogenized and filtered by hand using a stomacher bag with an integrated 170 μm membrane. DMSO (5% (w/v)) was added to the filtered slurry and aliquots were stored in cryogenic vials at −80° C. until use. Frozen fecal slurries were diluted to 0.2% (w/v) with M9 media (Na2HPO4 (6 g/L), KH2PO4 (3 g/L), NaCl (0.5 g/L) with addition of 0.1 mM CaCl2 and 1 mM MgSO4) and dispensed (1 mL) into deep well 96-well plates. Diluted fecal slurries containing 50 μM d9-choline chloride and compounds in doses ranging from 500 μM to 3.81 nM were sealed and incubated at 37° C. with shaking. After 20 hours, an aliquot of the fecal polymicrobial community was analyzed for viability using PrestoBlue cell viability reagent (Thermo Fisher Scientific, USA) as described below. The reaction plates were subsequently centrifuged (4000×g at 4° C. for 12 min) to pellet fecal material and 150 μl aliquots were transferred and quenched with addition of formic acid to 1% (v/v). All fecal processing and polymicrobial assay steps were performed in an anaerobic environment. The products were determined by LC/MS/MS and IC50 values were calculated as described previously for detection and analysis of TMA and d9-TMA in EXAMPLE 2.

[2] = system: Proteus mirabilis 29906 (Pm) lysate; assay: Inhibition of formation of TMA from choline in Proteus mirabilis lysate (EXAMPLE 2); assay type: biochemical; details: Proteus mirabilis 29906 lysate, d9-choline chloride substrate, 37° C. for two hours; read-out: TMA Inhibition (IC50, mol/L)
[3] = system: conversion of choline to TMA; assay: Rapid preclinical method, d9-choline challenge in mice (EXAMPLE 6); assay type: in vivo; details: oral gavage with 2 mg d9-Choline, plasma at 3 hr
Description: Challenge: C57bl/6 female mice (8 wk of age ˜20 g BW) were maintained in accordance with the NIH guidelines in a 12:12 hr light:dark cycle on normal chow diet were placed in a clean cage without food ˜1 hr prior to gavage. […] Food was returned after a 2 hr fast (1 hr after gavage administration). Blood (30 μL) was collected into a heparinized capillary tube 2, 3 and 4 hours after gavage. Blood was kept at 4° C., then spun using a centrifuge (5 min in centrifuge designed to capillary tubes) to separate plasma and hematocrit within 4 hours after collection. Plasma samples were stored at −80° C. Concentration of d9 Choline, d9TMA and d9TMAO was measured by LC-MS/MS.
Flora Normalization: Twenty four hours post-gavage mice were placed in a clean cage and fecal material from conventional mice was spread in all the cages.

[4] = system: whole cell wild-type P. mirabilis; assay: Inhibition of conversion of choline to TMA by whole cell wild-type P. mirabilis (EXAMPLE 5); assay type: cell-based; details: Proteus mirabilis, read-out: EC50 (mol/L) whole cell wild-type P. mirabilis
Description: (§1) Ability of compounds to inhibit the conversion of choline to TMA in cell lysates or whole cells were determined using methods as described in Wang, Z, Roberts, A B, Buffa J A, et al. (2015) Non-lethal inhibition of gut microbial trimethylamine production for the treatment of atherosclerosis, Cell 163: 1585-1595. Briefly, efficacy was measured as IC50 (nM) by inhibition of conversion of choline to TMA metabolized by recombinant P. mirabilis Cut C/D lysate; recombinant D. alaskensis Cut C/D lysate, or whole cell wild-type P. mirabilis.

[5] = molecular target: recombinant P. mirabilis Cut C/D lysate (Proteus mirabilis, UniProt B4EYG1); assay: Inhibition of conversion of choline to TMA by recombinant P. mirabilis Cut C/D lysate (EXAMPLE 5); assay type: biochemical
Sequence of recombinant P. mirabilis Cut C/D lysate (B4EYG1 entry or part of it): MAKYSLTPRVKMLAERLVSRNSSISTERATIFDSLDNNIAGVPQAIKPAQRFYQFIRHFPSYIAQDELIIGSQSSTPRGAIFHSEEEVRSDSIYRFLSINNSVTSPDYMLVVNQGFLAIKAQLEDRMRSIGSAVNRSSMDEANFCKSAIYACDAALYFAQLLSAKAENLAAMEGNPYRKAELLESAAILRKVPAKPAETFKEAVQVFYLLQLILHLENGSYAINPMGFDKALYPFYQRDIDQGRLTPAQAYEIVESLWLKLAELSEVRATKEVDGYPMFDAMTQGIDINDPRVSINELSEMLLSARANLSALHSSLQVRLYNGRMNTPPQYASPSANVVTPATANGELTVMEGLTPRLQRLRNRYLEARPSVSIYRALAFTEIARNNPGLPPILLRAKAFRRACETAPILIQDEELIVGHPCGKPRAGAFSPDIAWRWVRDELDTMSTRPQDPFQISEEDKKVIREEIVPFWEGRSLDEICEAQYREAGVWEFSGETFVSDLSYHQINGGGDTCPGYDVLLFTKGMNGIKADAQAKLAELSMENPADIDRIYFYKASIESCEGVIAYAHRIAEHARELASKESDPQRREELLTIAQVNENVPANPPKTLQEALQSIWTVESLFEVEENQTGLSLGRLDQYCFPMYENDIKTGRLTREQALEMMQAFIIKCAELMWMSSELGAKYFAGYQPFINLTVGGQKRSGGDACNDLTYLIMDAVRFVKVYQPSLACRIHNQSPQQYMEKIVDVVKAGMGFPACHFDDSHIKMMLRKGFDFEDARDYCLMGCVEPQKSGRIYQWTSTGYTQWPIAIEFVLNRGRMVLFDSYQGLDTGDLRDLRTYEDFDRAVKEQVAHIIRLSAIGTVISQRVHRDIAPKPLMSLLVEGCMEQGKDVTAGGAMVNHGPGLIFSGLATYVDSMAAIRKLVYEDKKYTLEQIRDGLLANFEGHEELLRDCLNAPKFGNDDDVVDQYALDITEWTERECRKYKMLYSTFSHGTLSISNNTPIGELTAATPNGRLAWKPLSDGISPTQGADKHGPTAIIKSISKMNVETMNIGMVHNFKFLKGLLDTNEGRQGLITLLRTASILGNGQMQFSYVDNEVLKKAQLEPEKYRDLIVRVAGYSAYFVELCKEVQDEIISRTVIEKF
Sequence of recombinant P. mirabilis Cut C/D lysate (B4EYG0 entry or part of it, further chain): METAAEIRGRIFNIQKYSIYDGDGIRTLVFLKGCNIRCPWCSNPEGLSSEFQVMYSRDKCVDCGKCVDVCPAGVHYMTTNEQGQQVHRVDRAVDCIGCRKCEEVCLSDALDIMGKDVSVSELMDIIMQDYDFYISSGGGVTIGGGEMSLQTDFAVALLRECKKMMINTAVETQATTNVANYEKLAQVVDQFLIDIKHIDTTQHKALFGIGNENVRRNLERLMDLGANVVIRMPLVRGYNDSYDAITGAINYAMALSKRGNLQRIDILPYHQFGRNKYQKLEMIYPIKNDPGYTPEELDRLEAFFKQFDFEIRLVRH
Description: as §1

[6] = system: plasma TMAO; assay: Preclinical screening method, plasma TMAO in mice on 1% choline diet (EXAMPLE 4); assay type: in vivo, mice (C57bl/6); details: 1% Choline Added diet, oral gavage 310 mg/kg/day, 3 days, blood 20 hours post gavage
Description: Starting at day 0, mice (C57bl/6, ˜19 g, 10 wk of age; n=5/group) were maintained in accordance with the NIH guidelines in a 12:12 hr light:dark cycle and provided with 1% Choline Added diet (Envigo custom formulation prepared, similar to Teklad Global Rodent Diet 2018) ad libitum. Concurrent with introduction of the diet, mice were gavaged once daily orally using a 1.5″ 22G ball-tip curved feeding needle to administer compound in 200 μl or less of water at one or multiple of the dose 0, 1.0, 3.1, 10, 31, 100 or 310 mg/kg/day. Urine was collected once daily in the morning. Animals were restrained by hand and bladder was expressed by gentle palpation of the pelvic region. […]
For measurement of TMA in plasma, samples were acidified (10 mM HCl final) prior to storage at −80° C. TMAO and TMA and their d9-isotopologues were quantified using stable isotope dilution HPLC with on-line electrospray ionization tandem mass spectrometry ([…]) methods as described in (Wang Z, Klipfell E, Bennett B J, et al. (2011) Gut flora metabolism of phosphatidylcholine promotes cardiovascular disease. Nature 472:57-63) using d4(1,1,2,2)-choline, d3(methyl)-TMAO, and d3(methyl)-TMA as internal standards. […]

[7] = molecular target: T1, recombinant D. alaskensis Cut C/D lysate (Oleidesulfovibrio alaskensis, UniProt Q30W70); assay: Inhibition of conversion of choline to TMA by recombinant D. alaskensis Cut C/D lysate (EXAMPLE 5); assay type: biochemical
T1 construct: made in house
T1 sequence (Q30W70 whole entry): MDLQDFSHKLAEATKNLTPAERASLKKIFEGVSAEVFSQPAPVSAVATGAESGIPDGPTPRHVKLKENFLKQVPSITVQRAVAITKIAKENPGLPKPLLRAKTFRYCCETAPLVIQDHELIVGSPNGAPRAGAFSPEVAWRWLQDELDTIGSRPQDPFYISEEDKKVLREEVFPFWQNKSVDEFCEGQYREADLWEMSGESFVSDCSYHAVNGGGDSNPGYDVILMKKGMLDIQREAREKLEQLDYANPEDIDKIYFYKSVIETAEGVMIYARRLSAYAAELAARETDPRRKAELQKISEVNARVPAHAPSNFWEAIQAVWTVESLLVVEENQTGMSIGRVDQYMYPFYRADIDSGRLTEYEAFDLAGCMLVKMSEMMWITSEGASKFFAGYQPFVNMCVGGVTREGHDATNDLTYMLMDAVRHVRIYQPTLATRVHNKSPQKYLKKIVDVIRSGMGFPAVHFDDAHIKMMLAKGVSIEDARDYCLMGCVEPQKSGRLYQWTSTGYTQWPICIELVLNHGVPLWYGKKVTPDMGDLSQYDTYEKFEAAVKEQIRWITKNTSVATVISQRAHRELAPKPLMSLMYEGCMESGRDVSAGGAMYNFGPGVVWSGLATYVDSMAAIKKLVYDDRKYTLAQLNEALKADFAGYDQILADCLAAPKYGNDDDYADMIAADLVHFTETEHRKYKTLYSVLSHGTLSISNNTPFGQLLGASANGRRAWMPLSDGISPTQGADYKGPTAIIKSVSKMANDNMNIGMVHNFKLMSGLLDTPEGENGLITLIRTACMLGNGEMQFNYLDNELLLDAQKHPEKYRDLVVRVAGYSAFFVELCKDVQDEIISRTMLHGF
Description: as §1

Compound | IC50 [1] | IC50 [2] | further results
C#CC[N+](C)(C)C1CC1 [compound 3, N,N-dimethyl-N-(prop-2-yn-1-yl)cyclopropanaminium] | 0.428 µM | 0.0331 µM | 
C[N+](C)(CCO)C1CC1 [ID 1, Cyclopropane-dimethyl-ethanolamine iodide] |  |  | Calculated EC50 (mg/kg) compared to Vehicle Control [3]: 0.75 mg/kg; EC50 [4]: 0.0481 µM; IC50 [5]: 0.0062 µM; Remaining plasma TMAO as a percentage of plasma TMAO in same day vehicle control (% of control remaining) [6]: 5%; IC50 [7]: 0.087 µM
COC(=O)C[N+](C)(C)C1CC1 [compound 4, N-(2-methoxy-2-oxoethyl)-N,N-dimethylcyclopropanaminium] | 134 µM | 89.2 µM | 
C[N+](C)(CCO)C1CC1 [compound 1] | 135 µM | 0.000251 µM | 
CCOC(=O)CCCCC[N+](C)(C)C1CC1 [compound 9, N-(6-ethoxy-6-oxohexyl)-N,N-dimethylcyclopropanaminium] |  | 945 µM | 
C#CC[N+](C)(C)C1CC1 [ID 3, N,N-dimethyl-N-(prop-2-yn-1-yl)cyclopropanaminium bromide] |  |  | Calculated EC50 (mg/kg) compared to Vehicle Control [3]: 0.04 mg/kg; EC50 ([4]; inhibition of conversion of choline to TMA): 0.038 µM; IC50 [5]: 0.15 µM; Remaining plasma TMAO as a percentage of plasma TMAO in same day vehicle control (% of control remaining) [6]: 23%; IC50 [7]: 0.11 µM
C[N+](C)(CF)C1CC1 [N-(fluoromethyl)-N,N-dimethylcyclopropanaminium iodide] |  | 60 µM | IC50 [5]: 21 µM; IC50 [7]: 45 µM
COC(=O)C(=O)C[N+](C)(C)C1CC1 [compound 6, N-(3-methoxy-2,3-dioxopropyl)-N,N-dimethylcyclopropanaminium] |  | 4.65 µM | 

The next lines start with results.

IC50 [1] | IC50 [2] | Compound | further results
 | 1.28 µM | C#CC[N+]1(C2CC2)CCOCC1 [compound 10, 4-cyclopropyl-4-(prop-2-yn-1-yl)morpholin-4-ium] | 
 | 202 µM | C[N+](C)(CC(N)=O)C1CC1 [compound 8, N-(2-amino-2-oxoethyl)-N,N-dimethylcyclopropanaminium] | 
166 µM | 50.4 µM | C=C(C[N+](C)(C)C1CC1)C(=O)OC [compound 5, N-(2-(methoxycarbonyl)allyl)-N,N-dimethylcyclopropanaminium] | 
53.2 µM | 0.00398 µM | C=CC[N+](C)(C)C1CC1 [compound 2, N-allyl-N,N-dimethylcyclopropanaminium] | 
